Source: EP1433789A1, “Pyrrolopyrazines and their use as selective apoptosis inducers” (Aponetics AG, priority 2002, dated 2004)

How the values were obtained:
HeLa [1] = test: Hoechst 33342 nuclear staining (Table 3); format: cell-based, human; parameters: key: 0 relating to no activity; 1 relating to weak activity comprising less than 50% of the cells; score 2 relating to strong activity comprising more than 50% of the cells
How it was run: (§1)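 Adherent cells (3-5×10^3, pre-spread 24 h) or suspension cells (8-10×10^3) treated with compounds at 10, 3, 1 and 0.3 µM for 24 or 48 h, then Hoechst 33342 stained for 30 min. Apoptotic nuclear morphology scored by fluorescence microscopy: 0 none, 1 weak (<50% cells), 2 strong (>50% cells).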

Jurkat [2] = test: Hoechst 33342 nuclear staining (Table 3); format: cell-based, human; parameters: key: 0 relating to no activity; 1 relating to weak activity comprising less than 50% of the cells; score 2 relating to strong activity comprising more than 50% of the cells
How it was run: as §1

K562 [3] = test: Hoechst 33342 nuclear staining (Table 3); format: cell-based, human; parameters: key: 0 relating to no activity; 1 relating to weak activity comprising less than 50% of the cells; score 2 relating to strong activity comprising more than 50% of the cells
How it was run: as §1

KB = test: Hoechst 33342 nuclear staining (Table 3); format: cell-based, human; parameters: key: 0 relating to no activity; 1 relating to weak activity comprising less than 50% of the cells; score 2 relating to strong activity comprising more than 50% of the cells
How it was run: as §1

HeLa [4] = test: MTS proliferation assay; format: cell-based; details: Homo sapiens, 72 h incubation
Procedure: (§2) The assay is performed in 96 well tissue culture plates. The cells (range : 1.5*10^3-10^4) are seeded out in 80 µl complete medium 24 h prior to compound treatment. The test compounds are added in 20 µl complete medium containing max 5% DMSO. The final compound concentrations in the assays are 10 µM, 3 µM,1 µM and 0.3 µM, respectively. The assay plates are incubated for 72 h at culture conditions. The MTS reagent is prepared according to the manufacturer's protocol (Promega G1111 ). 20 µl MTS reagent are added to each well, the assay plates are quickly spun and incubated for another 3 h at culture conditions. Subsequently, the plates are shortly shaked and absorption measured with a microplate-reader at 492 nm.

Jurkat [5] = test: MTS proliferation assay; format: cell-based; details: Homo sapiens, 72 h incubation
Procedure: as §2

K562 [6] = test: MTS proliferation assay; format: cell-based; details: Homo sapiens, K562, 72 h incubation
Procedure: as §2

HeLa [7] = test: AnnexinV/7-AAD staining; format: cell-based, human; details: 10 µM, 24 h treatment
How it was run: (§3)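 Cells treated with compound at 10 µM final for 24 h, then stained with AnnexinV-GST/anti-GST Alexa 488 and 7-AAD and analysed by flow cytometry. Percent positive cells scored as 0 (<10%), 1 (10–50%) or 2 (>50%).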

Jurkat [8] = test: AnnexinV/7-AAD staining; format: cell-based, human; details: 10 µM, 24 h treatment
How it was run: as §3

HeLa [9] = test: PI staining for cell cycle distribution; format: cell-based, human; parameters: key: 0 indicates no occurrence at all; 1 for weak; 2 for strong occurrence; details: HeLa 10 µM, 24 h
Procedure: (§4) 1 - 2*10^5 cells are seeded into 24 well tissue culture plates and incubated for 24 h prior to compound addition. Compounds are added for 24 h in a final concentration of 3 µM or 10 µM. Adherent cells are harvested by trypsinization. The cell suspensions are fixed by adding 2 parts ice cold ethanol 100% while vortexing. Then the samples are stored for > 2 h at-20°C. Subsequently the cells are washed with PBS once and resuspended in 250 µl PBS containing 50 µg/ml PI (Calbiochem # 537059), then the samples are incubated at 37°C for 30 minutes and subsequently analyzed on a FACSCalibur™ monitoring linear PI fluorescence activity on FL2.. The readout allows the detection of a possible direct or indirect influence of the tested compounds on the cell cycle. The following events can occur: a) Generation of a subG1 peak indicative for DNA fragmentation, b) increase of the cell population arrested in G2M phase. Both events are scored by 1 for weak and 2 for strong occurrence. 0 indicates no occurrence at all. […]

Jurkat [10] = test: PI staining for cell cycle distribution; format: cell-based, human; parameters: key: 0 indicates no occurrence at all; 1 for weak; 2 for strong occurrence; details: Jurkat 3 uM, 24 h
Procedure: as §4

CCC1Cc2cc(OC)c(OC)cc2-c2cc3nc4ccccc4nc3n21 (stereo not shown) [compound 13]
Hoechst 33342 nuclear staining (HeLa [1]; 24h, conc 0.3 (µM)): 0
Hoechst 33342 nuclear staining (HeLa [1]; 24h, conc 1 (µM)): 0
Hoechst 33342 nuclear staining (HeLa [1]; 24h, conc 3 (µM)): 0
Hoechst 33342 nuclear staining (HeLa [1]; 24h, conc 10 (µM)): 0
Hoechst 33342 nuclear staining (HeLa [1]; 48h, conc 0.3 (µM)): 0
Hoechst 33342 nuclear staining (HeLa [1]; 48h, conc 1 (µM)): 0
Hoechst 33342 nuclear staining (HeLa [1]; 48h, conc 3 (µM)): 2 (score 2 relating to strong activity comprising more than 50% of the cells)
Hoechst 33342 nuclear staining (HeLa [1]; 48h, conc 10 (µM)): 2 (score 2 relating to strong activity comprising more than 50% of the cells)
Hoechst 33342 nuclear staining (Jurkat [2]; 24h, conc 0.3 (µM)): 0
Hoechst 33342 nuclear staining (Jurkat [2]; 24h, conc 1 (µM)): 0
Hoechst 33342 nuclear staining (Jurkat [2]; 24h, conc 3 (µM)): 1 (1 relating to weak activity comprising less than 50% of the cells)
Hoechst 33342 nuclear staining (Jurkat [2]; 24h, conc 10 (µM)): 2 (score 2 relating to strong activity comprising more than 50% of the cells)
Hoechst 33342 nuclear staining (Jurkat [2]; 48h, conc 0.3 (µM)): 0
Hoechst 33342 nuclear staining (Jurkat [2]; 48h, conc 1 (µM)): 2 (score 2 relating to strong activity comprising more than 50% of the cells)
Hoechst 33342 nuclear staining (Jurkat [2]; 48h, conc 3 (µM)): 2 (score 2 relating to strong activity comprising more than 50% of the cells)
Hoechst 33342 nuclear staining (Jurkat [2]; 48h, conc 10 (µM)): 2 (score 2 relating to strong activity comprising more than 50% of the cells)
Hoechst 33342 nuclear staining (K562 [3]; K562, 24h, conc 0.3 (µM)): 0
Hoechst 33342 nuclear staining (K562 [3]; K562, 24h, conc 1 (µM)): 0
Hoechst 33342 nuclear staining (K562 [3]; K562, 24h, conc 3 (µM)): 0
Hoechst 33342 nuclear staining (K562 [3]; K562, 24h, conc 10 (µM)): 2 (score 2 relating to strong activity comprising more than 50% of the cells)
Hoechst 33342 nuclear staining (K562 [3]; K562, 48h, conc 0.3 (µM)): 0
Hoechst 33342 nuclear staining (K562 [3]; K562, 48h, conc 1 (µM)): 0
Hoechst 33342 nuclear staining (K562 [3]; K562, 48h, conc 3 (µM)): 1 (1 relating to weak activity comprising less than 50% of the cells)
Hoechst 33342 nuclear staining (K562 [3]; K562, 48h, conc 10 (µM)): 2 (score 2 relating to strong activity comprising more than 50% of the cells)
Hoechst 33342 nuclear staining (KB; 24h, conc 0.3 (µM)): 0
Hoechst 33342 nuclear staining (KB; 24h, conc 1 (µM)): 0
Hoechst 33342 nuclear staining (KB; 24h, conc 3 (µM)): 0
Hoechst 33342 nuclear staining (KB; 24h, conc 10 (µM)): 2 (score 2 relating to strong activity comprising more than 50% of the cells)
Hoechst 33342 nuclear staining (KB; 48h, conc 0.3 (µM)): 0
Hoechst 33342 nuclear staining (KB; 48h, conc 1 (µM)): 0
Hoechst 33342 nuclear staining (KB; 48h, conc 3 (µM)): 2 (score 2 relating to strong activity comprising more than 50% of the cells)
Hoechst 33342 nuclear staining (KB; 48h, conc 10 (µM)): 2 (score 2 relating to strong activity comprising more than 50% of the cells)
IC50 (HeLa [4]): > 10 µM
IC50 (Jurkat [5]): 1 to 10 µM
IC50 (K562 [6]): > 10 µM
percentage of positively stained cells (AnnexinV/7-AAD staining) (HeLa [7]): 1 (score 1 relates to more than 10% but less than 50%)
percentage of positively stained cells (AnnexinV/7-AAD staining) (Jurkat [8]): 2 (score 2 relates to more than 50% positivity)
G2M (increase of the cell population arrested in G2M phase) (HeLa [9]): 0
subG1 (generation of a subG1 peak indicative for DNA fragmentation) (HeLa [9]): 0
G2M (increase of the cell population arrested in G2M phase) (Jurkat [10]): 0
subG1 (generation of a subG1 peak indicative for DNA fragmentation) (Jurkat [10]): 0

COc1cc2c(cc1OC)-c1c(Cl)c3nc4ccccc4nc3n1C(C)C2 (stereo not shown) [compound 12]
Hoechst 33342 nuclear staining (HeLa [1]; 24h, conc 0.3 (µM)): 0
Hoechst 33342 nuclear staining (HeLa [1]; 24h, conc 1 (µM)): 0
Hoechst 33342 nuclear staining (HeLa [1]; 24h, conc 3 (µM)): 0
Hoechst 33342 nuclear staining (HeLa [1]; 24h, conc 10 (µM)): 0
Hoechst 33342 nuclear staining (HeLa [1]; 48h, conc 0.3 (µM)): 0
Hoechst 33342 nuclear staining (HeLa [1]; 48h, conc 1 (µM)): 1 (1 relating to weak activity comprising less than 50% of the cells)
Hoechst 33342 nuclear staining (HeLa [1]; 48h, conc 3 (µM)): 2 (score 2 relating to strong activity comprising more than 50% of the cells)
Hoechst 33342 nuclear staining (HeLa [1]; 48h, conc 10 (µM)): 2 (score 2 relating to strong activity comprising more than 50% of the cells)
Hoechst 33342 nuclear staining (Jurkat [2]; 24h, conc 0.3 (µM)): 0
Hoechst 33342 nuclear staining (Jurkat [2]; 24h, conc 1 (µM)): 0
Hoechst 33342 nuclear staining (Jurkat [2]; 24h, conc 3 (µM)): 1 (1 relating to weak activity comprising less than 50% of the cells)
Hoechst 33342 nuclear staining (Jurkat [2]; 24h, conc 10 (µM)): 2 (score 2 relating to strong activity comprising more than 50% of the cells)
Hoechst 33342 nuclear staining (Jurkat [2]; 48h, conc 0.3 (µM)): 1 (1 relating to weak activity comprising less than 50% of the cells)
Hoechst 33342 nuclear staining (Jurkat [2]; 48h, conc 1 (µM)): 2 (score 2 relating to strong activity comprising more than 50% of the cells)
Hoechst 33342 nuclear staining (Jurkat [2]; 48h, conc 3 (µM)): 2 (score 2 relating to strong activity comprising more than 50% of the cells)
Hoechst 33342 nuclear staining (Jurkat [2]; 48h, conc 10 (µM)): 2 (score 2 relating to strong activity comprising more than 50% of the cells)
Hoechst 33342 nuclear staining (K562 [3]; K562, 24h, conc 0.3 (µM)): 0
Hoechst 33342 nuclear staining (K562 [3]; K562, 24h, conc 1 (µM)): 0
Hoechst 33342 nuclear staining (K562 [3]; K562, 24h, conc 3 (µM)): 0
Hoechst 33342 nuclear staining (K562 [3]; K562, 24h, conc 10 (µM)): 2 (score 2 relating to strong activity comprising more than 50% of the cells)
Hoechst 33342 nuclear staining (K562 [3]; K562, 48h, conc 0.3 (µM)): 0
Hoechst 33342 nuclear staining (K562 [3]; K562, 48h, conc 1 (µM)): 1 (1 relating to weak activity comprising less than 50% of the cells)
Hoechst 33342 nuclear staining (K562 [3]; K562, 48h, conc 3 (µM)): 2 (score 2 relating to strong activity comprising more than 50% of the cells)
Hoechst 33342 nuclear staining (K562 [3]; K562, 48h, conc 10 (µM)): 2 (score 2 relating to strong activity comprising more than 50% of the cells)
Hoechst 33342 nuclear staining (KB; 24h, conc 0.3 (µM)): 0
Hoechst 33342 nuclear staining (KB; 24h, conc 1 (µM)): 0
Hoechst 33342 nuclear staining (KB; 24h, conc 3 (µM)): 0
Hoechst 33342 nuclear staining (KB; 24h, conc 10 (µM)): 2 (score 2 relating to strong activity comprising more than 50% of the cells)
Hoechst 33342 nuclear staining (KB; 48h, conc 0.3 (µM)): 0
Hoechst 33342 nuclear staining (KB; 48h, conc 1 (µM)): 0
Hoechst 33342 nuclear staining (KB; 48h, conc 3 (µM)): 2 (score 2 relating to strong activity comprising more than 50% of the cells)
Hoechst 33342 nuclear staining (KB; 48h, conc 10 (µM)): 2 (score 2 relating to strong activity comprising more than 50% of the cells)
IC50 (HeLa [4]): > 10 µM
IC50 (Jurkat [5]): > 10 µM
IC50 (K562 [6]): > 10 µM
percentage of positively stained cells (AnnexinV/7-AAD staining) (HeLa [7]): 2 (score 2 relates to more than 50% positivity)
percentage of positively stained cells (AnnexinV/7-AAD staining) (Jurkat [8]): 2 (score 2 relates to more than 50% positivity)
G2M (increase of the cell population arrested in G2M phase) (HeLa [9]): 0
subG1 (generation of a subG1 peak indicative for DNA fragmentation) (HeLa [9]): 0
G2M (increase of the cell population arrested in G2M phase) (Jurkat [10]): 0
subG1 (generation of a subG1 peak indicative for DNA fragmentation) (Jurkat [10]): 0
